What was measured:
[1] = biological target: Sodium-dependent serotonin transporter (Homo sapiens, UniProt P31645)
[2] = biological target: T1, Amine oxidase [flavin-containing] A (Homo sapiens, UniProt P21397); assay type: functional
T1 sequence (P21397 whole entry): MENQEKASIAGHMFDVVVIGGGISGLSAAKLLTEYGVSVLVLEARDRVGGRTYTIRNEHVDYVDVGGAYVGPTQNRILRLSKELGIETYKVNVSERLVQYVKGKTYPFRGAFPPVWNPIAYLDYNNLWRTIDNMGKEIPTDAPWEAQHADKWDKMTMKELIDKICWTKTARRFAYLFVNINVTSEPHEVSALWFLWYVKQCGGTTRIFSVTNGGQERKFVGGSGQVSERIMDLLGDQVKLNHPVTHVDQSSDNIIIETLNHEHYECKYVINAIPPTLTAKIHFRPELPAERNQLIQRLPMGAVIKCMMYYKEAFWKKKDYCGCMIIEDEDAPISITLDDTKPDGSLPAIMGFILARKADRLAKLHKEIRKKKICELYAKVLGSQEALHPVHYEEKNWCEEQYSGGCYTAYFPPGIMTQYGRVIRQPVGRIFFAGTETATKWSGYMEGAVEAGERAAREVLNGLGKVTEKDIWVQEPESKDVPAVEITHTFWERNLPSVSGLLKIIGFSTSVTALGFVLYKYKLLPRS

[3] = biological target: T2, 5-hydroxytryptamine receptor 1A (Homo sapiens, UniProt P08908)
T2 sequence (P08908 whole entry): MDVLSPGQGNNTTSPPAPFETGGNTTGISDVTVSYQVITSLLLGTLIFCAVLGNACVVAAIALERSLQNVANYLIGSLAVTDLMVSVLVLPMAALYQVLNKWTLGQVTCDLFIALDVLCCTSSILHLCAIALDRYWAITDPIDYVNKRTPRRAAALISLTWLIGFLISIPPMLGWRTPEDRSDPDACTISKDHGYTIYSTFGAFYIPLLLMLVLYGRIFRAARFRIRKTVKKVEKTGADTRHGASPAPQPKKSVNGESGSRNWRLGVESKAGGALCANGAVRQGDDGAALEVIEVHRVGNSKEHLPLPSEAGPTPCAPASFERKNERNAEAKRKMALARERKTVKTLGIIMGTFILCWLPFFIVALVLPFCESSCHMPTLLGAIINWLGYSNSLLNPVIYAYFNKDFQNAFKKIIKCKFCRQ

[4] = biological target: T3, Alpha-1A adrenergic receptor (Homo sapiens, UniProt P35348); assay type: functional, cell-based
T3 sequence (P35348 whole entry): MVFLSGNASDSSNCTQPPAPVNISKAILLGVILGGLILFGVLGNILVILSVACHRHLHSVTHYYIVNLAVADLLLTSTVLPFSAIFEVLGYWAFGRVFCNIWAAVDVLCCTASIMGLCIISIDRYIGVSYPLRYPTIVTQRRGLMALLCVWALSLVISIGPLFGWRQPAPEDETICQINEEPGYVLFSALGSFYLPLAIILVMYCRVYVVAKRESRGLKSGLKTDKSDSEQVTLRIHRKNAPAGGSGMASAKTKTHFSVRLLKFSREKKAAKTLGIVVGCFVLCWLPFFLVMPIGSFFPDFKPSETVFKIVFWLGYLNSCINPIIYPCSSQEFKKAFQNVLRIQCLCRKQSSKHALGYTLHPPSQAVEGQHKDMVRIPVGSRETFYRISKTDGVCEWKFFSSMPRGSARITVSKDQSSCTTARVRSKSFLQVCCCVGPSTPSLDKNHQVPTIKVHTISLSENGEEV

[5] = biological target: 5-hydroxytryptamine receptor 2B (Homo sapiens, UniProt P41595); assay type: functional, cell-based
[6] = biological target: Sodium-dependent noradrenaline transporter (Homo sapiens, UniProt P23975)
[7] = biological target: 3',5'-cyclic-AMP phosphodiesterase 4A (Homo sapiens, UniProt P27815); assay type: functional
[8] = biological target: Mu-type opioid receptor (Homo sapiens, UniProt P35372)
[9] = biological target: T4, Estrogen receptor (Homo sapiens, UniProt P03372)
T4 sequence (P03372 whole entry): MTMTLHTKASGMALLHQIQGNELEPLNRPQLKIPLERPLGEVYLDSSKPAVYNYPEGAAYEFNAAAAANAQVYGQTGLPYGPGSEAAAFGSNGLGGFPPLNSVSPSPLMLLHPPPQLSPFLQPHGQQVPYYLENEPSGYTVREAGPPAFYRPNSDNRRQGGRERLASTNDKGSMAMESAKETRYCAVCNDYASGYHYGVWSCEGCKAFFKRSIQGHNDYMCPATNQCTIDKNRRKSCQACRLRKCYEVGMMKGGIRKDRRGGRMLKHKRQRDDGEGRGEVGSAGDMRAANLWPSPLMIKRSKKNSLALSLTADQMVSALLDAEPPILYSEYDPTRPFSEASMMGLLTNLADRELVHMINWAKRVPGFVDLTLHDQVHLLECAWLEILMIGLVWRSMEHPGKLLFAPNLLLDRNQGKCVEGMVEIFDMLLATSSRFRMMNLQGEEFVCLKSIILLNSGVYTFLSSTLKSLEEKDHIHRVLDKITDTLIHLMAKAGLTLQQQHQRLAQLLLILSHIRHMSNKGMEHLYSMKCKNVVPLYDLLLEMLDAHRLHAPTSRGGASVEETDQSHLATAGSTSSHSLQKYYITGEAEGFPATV

[10] = biological target: T5, Prostaglandin G/H synthase 1 (Homo sapiens, UniProt P23219); assay type: functional
[11] = biological target: Histamine H3 receptor (Homo sapiens, UniProt Q9Y5N1)
[12] = biological target: T5, Prostaglandin G/H synthase 1; assay type: functional; remark: listed apart in the source
[13] = biological target: T6, Muscarinic acetylcholine receptor M2 (Homo sapiens, UniProt P08172)
T6 sequence (P08172 whole entry): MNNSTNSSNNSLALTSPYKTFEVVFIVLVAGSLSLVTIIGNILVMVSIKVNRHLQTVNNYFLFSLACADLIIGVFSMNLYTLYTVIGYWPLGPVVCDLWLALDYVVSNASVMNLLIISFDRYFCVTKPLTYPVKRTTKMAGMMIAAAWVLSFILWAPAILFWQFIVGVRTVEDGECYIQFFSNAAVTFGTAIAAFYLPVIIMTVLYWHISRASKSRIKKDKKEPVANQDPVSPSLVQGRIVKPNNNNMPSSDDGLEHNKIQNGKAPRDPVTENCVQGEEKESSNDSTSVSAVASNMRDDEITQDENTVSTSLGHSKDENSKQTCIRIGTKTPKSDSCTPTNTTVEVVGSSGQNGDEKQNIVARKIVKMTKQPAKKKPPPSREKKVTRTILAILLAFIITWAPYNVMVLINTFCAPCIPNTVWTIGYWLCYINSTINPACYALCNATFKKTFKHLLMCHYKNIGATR
Further: assay procedure not described here.

Chain of 5-hydroxytryptamine receptor 2B (P41595 whole entry): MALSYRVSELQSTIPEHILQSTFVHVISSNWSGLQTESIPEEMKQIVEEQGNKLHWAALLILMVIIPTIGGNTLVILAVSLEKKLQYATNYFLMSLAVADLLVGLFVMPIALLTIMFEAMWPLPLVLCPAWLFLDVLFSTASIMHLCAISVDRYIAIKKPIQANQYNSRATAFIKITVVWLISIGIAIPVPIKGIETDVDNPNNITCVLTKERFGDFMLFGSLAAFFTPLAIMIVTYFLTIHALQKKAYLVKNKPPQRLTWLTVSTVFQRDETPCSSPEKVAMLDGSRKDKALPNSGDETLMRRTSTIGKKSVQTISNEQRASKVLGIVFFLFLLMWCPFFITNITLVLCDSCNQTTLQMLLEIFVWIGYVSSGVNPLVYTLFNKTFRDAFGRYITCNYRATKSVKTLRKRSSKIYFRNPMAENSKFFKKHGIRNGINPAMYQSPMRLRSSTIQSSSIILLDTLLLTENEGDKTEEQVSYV
Chain of 3',5'-cyclic-AMP phosphodiesterase 4A (P27815 whole entry): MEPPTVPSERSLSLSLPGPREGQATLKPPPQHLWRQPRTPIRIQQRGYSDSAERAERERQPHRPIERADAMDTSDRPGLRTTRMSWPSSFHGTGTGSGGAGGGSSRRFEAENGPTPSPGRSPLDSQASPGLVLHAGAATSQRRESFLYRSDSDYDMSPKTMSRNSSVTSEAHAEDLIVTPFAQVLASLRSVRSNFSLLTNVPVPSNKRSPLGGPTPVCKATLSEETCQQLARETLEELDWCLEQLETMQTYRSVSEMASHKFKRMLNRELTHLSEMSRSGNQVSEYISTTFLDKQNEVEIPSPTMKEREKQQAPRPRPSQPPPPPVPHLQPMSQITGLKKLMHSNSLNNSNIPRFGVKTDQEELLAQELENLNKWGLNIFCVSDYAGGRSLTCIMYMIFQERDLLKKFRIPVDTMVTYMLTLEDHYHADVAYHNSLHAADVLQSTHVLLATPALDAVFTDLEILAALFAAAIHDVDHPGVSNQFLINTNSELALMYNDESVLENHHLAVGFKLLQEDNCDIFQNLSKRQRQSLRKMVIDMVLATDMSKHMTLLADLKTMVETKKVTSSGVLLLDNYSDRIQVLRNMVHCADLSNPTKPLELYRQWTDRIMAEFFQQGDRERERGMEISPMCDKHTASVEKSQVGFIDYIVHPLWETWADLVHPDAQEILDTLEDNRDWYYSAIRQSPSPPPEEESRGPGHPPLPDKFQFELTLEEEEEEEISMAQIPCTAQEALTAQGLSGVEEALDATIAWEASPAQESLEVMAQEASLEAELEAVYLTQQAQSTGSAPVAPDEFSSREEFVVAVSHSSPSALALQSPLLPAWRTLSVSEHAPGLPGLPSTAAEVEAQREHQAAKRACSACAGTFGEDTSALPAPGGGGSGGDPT
Chain of Sodium-dependent noradrenaline transporter (P23975 whole entry): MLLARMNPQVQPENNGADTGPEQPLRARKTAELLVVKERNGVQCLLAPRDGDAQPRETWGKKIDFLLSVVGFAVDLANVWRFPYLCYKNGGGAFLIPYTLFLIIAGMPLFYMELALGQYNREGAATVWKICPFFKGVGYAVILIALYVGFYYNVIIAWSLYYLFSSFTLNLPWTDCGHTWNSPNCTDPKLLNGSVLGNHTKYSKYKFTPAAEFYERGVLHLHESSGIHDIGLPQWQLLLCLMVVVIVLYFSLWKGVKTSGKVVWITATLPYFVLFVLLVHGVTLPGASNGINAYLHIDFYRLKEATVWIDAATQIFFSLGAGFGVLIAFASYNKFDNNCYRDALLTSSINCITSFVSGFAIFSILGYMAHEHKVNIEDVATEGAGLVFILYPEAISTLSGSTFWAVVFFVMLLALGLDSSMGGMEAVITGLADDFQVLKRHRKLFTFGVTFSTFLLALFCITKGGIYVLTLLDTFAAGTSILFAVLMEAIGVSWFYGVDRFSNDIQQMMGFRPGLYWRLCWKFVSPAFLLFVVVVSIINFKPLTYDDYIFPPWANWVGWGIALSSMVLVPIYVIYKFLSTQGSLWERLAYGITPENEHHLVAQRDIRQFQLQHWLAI
Chain of Mu-type opioid receptor (P35372 whole entry): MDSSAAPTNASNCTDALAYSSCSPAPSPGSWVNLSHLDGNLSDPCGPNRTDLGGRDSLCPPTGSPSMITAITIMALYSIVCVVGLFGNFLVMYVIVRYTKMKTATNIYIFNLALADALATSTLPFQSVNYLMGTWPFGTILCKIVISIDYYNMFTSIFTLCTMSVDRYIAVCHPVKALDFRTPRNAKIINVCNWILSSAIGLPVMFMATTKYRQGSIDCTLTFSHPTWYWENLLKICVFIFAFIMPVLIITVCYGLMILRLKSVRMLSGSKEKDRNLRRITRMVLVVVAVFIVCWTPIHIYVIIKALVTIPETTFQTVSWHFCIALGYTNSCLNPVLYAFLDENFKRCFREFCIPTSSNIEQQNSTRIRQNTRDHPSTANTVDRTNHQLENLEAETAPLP
Chain of Histamine H3 receptor (Q9Y5N1 whole entry): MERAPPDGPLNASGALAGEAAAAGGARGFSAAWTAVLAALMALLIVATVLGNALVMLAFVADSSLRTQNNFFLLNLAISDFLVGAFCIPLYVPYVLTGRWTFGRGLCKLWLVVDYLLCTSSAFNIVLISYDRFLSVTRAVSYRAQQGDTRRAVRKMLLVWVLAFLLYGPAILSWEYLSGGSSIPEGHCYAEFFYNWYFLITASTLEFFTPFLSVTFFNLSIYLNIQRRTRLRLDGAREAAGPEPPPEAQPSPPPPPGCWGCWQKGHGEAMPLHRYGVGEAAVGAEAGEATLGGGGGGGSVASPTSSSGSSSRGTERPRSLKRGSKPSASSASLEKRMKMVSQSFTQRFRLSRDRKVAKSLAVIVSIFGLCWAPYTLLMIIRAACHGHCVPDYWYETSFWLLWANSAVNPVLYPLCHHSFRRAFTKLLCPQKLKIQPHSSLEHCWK
Chain of Sodium-dependent serotonin transporter (P31645 whole entry): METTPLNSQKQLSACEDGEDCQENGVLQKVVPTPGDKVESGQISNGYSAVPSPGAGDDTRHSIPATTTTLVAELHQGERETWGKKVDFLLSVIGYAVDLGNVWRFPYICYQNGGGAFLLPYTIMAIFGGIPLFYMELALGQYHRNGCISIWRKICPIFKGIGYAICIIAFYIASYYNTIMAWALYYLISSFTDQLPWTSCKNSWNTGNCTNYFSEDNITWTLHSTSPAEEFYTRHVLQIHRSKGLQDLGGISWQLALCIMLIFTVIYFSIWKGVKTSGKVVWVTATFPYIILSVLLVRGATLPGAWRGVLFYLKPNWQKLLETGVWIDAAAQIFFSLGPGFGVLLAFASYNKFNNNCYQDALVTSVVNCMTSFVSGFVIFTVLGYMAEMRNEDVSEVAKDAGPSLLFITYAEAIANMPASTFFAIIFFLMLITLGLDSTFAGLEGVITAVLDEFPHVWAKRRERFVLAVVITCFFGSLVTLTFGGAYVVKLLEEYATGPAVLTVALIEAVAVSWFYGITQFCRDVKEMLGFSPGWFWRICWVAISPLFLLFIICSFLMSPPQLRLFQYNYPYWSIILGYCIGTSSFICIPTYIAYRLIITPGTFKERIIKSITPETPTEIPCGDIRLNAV
T5 sequence (P23219 whole entry): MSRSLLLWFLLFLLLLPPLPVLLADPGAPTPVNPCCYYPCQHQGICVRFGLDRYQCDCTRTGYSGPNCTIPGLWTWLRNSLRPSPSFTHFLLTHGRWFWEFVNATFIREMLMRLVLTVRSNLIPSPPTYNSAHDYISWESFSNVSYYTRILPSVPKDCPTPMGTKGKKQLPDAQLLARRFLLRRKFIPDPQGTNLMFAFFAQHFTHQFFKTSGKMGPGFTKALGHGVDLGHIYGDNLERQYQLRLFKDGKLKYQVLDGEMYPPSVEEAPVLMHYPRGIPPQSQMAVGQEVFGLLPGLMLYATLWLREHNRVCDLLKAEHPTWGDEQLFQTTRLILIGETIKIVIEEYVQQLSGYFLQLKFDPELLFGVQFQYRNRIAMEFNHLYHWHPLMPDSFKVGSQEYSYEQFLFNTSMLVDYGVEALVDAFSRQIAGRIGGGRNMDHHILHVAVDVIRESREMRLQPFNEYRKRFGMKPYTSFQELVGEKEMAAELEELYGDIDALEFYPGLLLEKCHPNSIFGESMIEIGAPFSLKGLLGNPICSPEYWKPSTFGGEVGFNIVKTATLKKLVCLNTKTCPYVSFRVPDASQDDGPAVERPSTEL

SMILES	AC50 [1]	AC50 [2]	AC50 [3]	AC50 [4]	AC50 [5]	AC50 [6]	AC50 [7]	AC50 [8]	AC50 [9]	AC50 [10]	AC50 [11]	AC50 [12]	AC50 [13]
CO[C@H]1[C@@H](O)C[C@H](O[C@H]2[C@@H](O)C[C@H](O[C@H]3[C@@H](O)C[C@H](O[C@H]4CC[C@@]5(C)[C@H](CC[C@@H]6[C@@H]5C[C@@H](O)[C@]5(C)[C@@H](C7=CC(=O)OC7)CC[C@]65O)C4)O[C@@H]3C)O[C@@H]2C)O[C@@H]1C [METILDIGOXIN]	> 30 µM	> 30 µM	> 30 µM	> 30 µM	> 30 µM	> 30 µM	> 30 µM	> 30 µM	> 30 µM	> 30 µM	> 30 µM	> 30 µM	> 30 µM
CC1(C)S[C@@H]2[C@H](NC(=O)[C@H](NC(=O)N3CCN(S(C)(=O)=O)C3=O)c3ccccc3)C(=O)N2[C@H]1C(=O)O [MEZLOCILLIN]	> 30 µM	> 30 µM	> 30 µM	> 30 µM	> 30 µM	> 30 µM	> 30 µM	> 30 µM	> 30 µM	> 30 µM	> 30 µM	> 30 µM	> 30 µM
CCOC(=O)[C@H](CCc1ccccc1)N[C@@H](C)C(=O)N1Cc2cc(OC)c(OC)cc2C[C@H]1C(=O)O [MOEXIPRIL]	> 30 µM	> 30 µM	> 30 µM	> 30 µM	> 30 µM	> 30 µM	> 30 µM	> 30 µM	> 30 µM	> 30 µM	> 30 µM	> 30 µM	> 30 µM
CC(c1ccc(Cl)c(Cl)c1)N1N=C(N)CC1=O (stereo not drawn) [MUZOLIMINE]	> 30 µM	> 30 µM	> 30 µM	> 30 µM	> 30 µM	> 30 µM	> 30 µM	> 30 µM	> 30 µM	> 30 µM	> 30 µM	13.3 µM	> 30 µM
C1CNCCN1 [PIPERAZINE]	> 30 µM	> 30 µM	> 30 µM	> 30 µM	> 30 µM	> 30 µM	28.4 µM	> 30 µM	> 30 µM	> 30 µM	> 30 µM	> 30 µM	> 30 µM
c1cc(CN2CCCNCCNCCCNCC2)ccc1CN1CCCNCCNCCCNCC1 [PLERIXAFOR]	> 30 µM	> 30 µM	> 30 µM	> 30 µM	> 30 µM	> 30 µM	> 30 µM	> 30 µM	> 30 µM	> 30 µM	0.307 µM	> 30 µM	> 30 µM
O=C(NC(Cc1cc(=O)[nH]c2ccccc12)C(=O)O)c1ccc(Cl)cc1 (stereo not drawn) [REBAMIPIDE]	> 30 µM	> 30 µM	> 30 µM	> 30 µM	> 30 µM	> 30 µM	> 30 µM	> 30 µM	> 30 µM	> 30 µM	> 30 µM	> 30 µM	> 30 µM
CCCC(=O)O[C@H]1[C@H](C)O[C@@H](O[C@H]2[C@H](N(C)C)[C@@H](O)[C@H](O[C@H]3[C@@H](CC=O)C[C@@H](C)[C@@H](O)/C=C/C=C/C[C@@H](C)OC(=O)C[C@@H](O)[C@@H]3OC)O[C@@H]2C)C[C@@]1(C)OC(=O)CC [ROKITAMYCIN]	> 30 µM	> 30 µM	> 30 µM	> 30 µM	> 30 µM	> 30 µM	> 30 µM	> 30 µM	> 30 µM	8.78 µM	> 30 µM	> 30 µM	> 30 µM
CCCCCCCCCCCCCCCCCC(=O)NCCCC[C@H](NC(=O)CC[C@@H](NC(=O)[C@H](C)NC(=O)[C@@H](C)O[C@H]1[C@H](O)[C@@H](CO)OC(O)[C@@H]1NC(C)=O)C(N)=O)C(=O)O (stereo partly drawn) [ROMURTIDE]	> 30 µM	> 30 µM	6.21 µM	13.3 µM	> 30 µM	> 30 µM	> 3 µM	> 30 µM	22.2 µM	5.94 µM	> 30 µM	> 30 µM	> 30 µM
CCOC(=O)[C@H](CCc1ccccc1)N[C@H]1CS[C@H](c2cccs2)CN(CC(=O)O)C1=O [TEMOCAPRIL]	> 30 µM	> 30 µM	> 30 µM	> 30 µM	> 30 µM	> 30 µM	> 10 µM	> 30 µM	> 30 µM	> 30 µM	> 30 µM	> 30 µM	> 30 µM
COc1cc([C@@H]2c3cc4c(cc3[C@@H](O[C@@H]3O[C@@H]5CO[C@@H](c6cccs6)O[C@H]5[C@H](O)[C@H]3O)[C@H]3COC(=O)[C@H]23)OCO4)cc(OC)c1O [TENIPOSIDE]	> 30 µM	> 30 µM	> 30 µM	> 30 µM	> 30 µM	> 30 µM	> 30 µM	> 30 µM	> 30 µM	> 30 µM	> 30 µM	> 30 µM	> 30 µM

— ChEMBL document CHEMBL5291721, “A preclinical secondary pharmacology resource illuminates target-adverse drug reaction associations of marketed drugs” (Nat Commun, 2023)
